Source: the supplement of paper PMC6580486
Where a name gives a salt, the structure may show the parent alone.

Key:
ESX = test system: ESX
Method: (§1)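 60-agent targeted drug screens (Drug Screen V3 on epithelioid sarcoma cultures PCB490-3/4/5, PCB495, EPS cell lines ESX, VA-ES-BJ, FU-EPS-1 and SkMc myoblasts; PPTI screen v2.1 on human UPS PCB197 and canine UPS S1-12). 384-well plates, 72 h, CellTiter-Glo viability; IC50 by Hill curve fit. 10000 nM = no IC50 achieved (top reported value).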

FU-EPS-1 = test system: FU-EPS-1
Method: as §1

PCB-490-3 = test system: PCB-490-3 (human epithelioid sarcoma primary culture)
Method: as §1

PCB-490-4 = test system: PCB-490-4 (human epithelioid sarcoma primary culture)
Method: as §1

PCB-490-5 = test system: PCB-490-5 (human epithelioid sarcoma primary culture)
Method: as §1

PCB-495 = test system: PCB-495 (human epithelioid sarcoma primary culture)
Method: as §1

SkMc = test system: SkMc
Method: as §1

VA-ES-BJ = test system: VA-ES-BJ
Method: as §1

pcb-00197 = test system: pcb-00197 (human undifferentiated pleomorphic sarcoma culture)
Method: as §1

s1-12 = test system: s1-12 (canine undifferentiated pleomorphic sarcoma culture)
Method: as §1

| Structure (SMILES) | IC50 cell viability (ESX) [µM] | IC50 cell viability (FU-EPS-1) [µM] | IC50 cell viability (PCB-490-3) [µM] | IC50 cell viability (PCB-490-4) [µM] | IC50 cell viability (PCB-490-5) [µM] | IC50 cell viability (PCB-495) [µM] | IC50 cell viability (SkMc) [µM] | IC50 cell viability (VA-ES-BJ) [µM] | IC50 cell viability (pcb-00197) [nM] | IC50 cell viability (s1-12) [nM] |
| --- | --- | --- | --- | --- | --- | --- | --- | --- | --- | --- |
| CNC(=O)CN1CCC(Oc2cc3c(Nc4cccc(Cl)c4F)ncnc3cc2OC)CC1 [AZD8931] | 4.75 | > 10 | > 10 | > 10 | > 10 | > 10 | > 10 | > 10 |  |  |
| CS(=O)(=O)c1cccc(CNc2nc(Nc3ccc4c(c3)CCC(=O)N4)ncc2C(F)(F)F)c1 | > 10 | > 10 | > 10 | > 10 | > 10 | > 10 | > 10 | > 10 |  |  |
| C[C@@H](Oc1ccc2[nH]nc(/C=C/c3cnn(CCO)c3)c2c1)c1c(Cl)cncc1Cl | 4.52 | > 10 | 1.73 | 0.5 | 0.46 | 0.19 | > 10 | > 10 |  |  |
| Cc1cc(-c2ncc(CC(=O)Nc3ccc(-c4cnccn4)cn3)cc2C)ccn1 [LGK974] | > 10 | > 10 | > 10 | > 10 | > 10 | > 10 | > 10 | > 10 |  |  |
| CN(C(=O)c1ccc(F)cc1C(F)(F)F)C1CCN(c2nnc(-c3ccnn3C)c3ccccc23)CC1 | > 10 | > 10 | > 10 | > 10 | > 10 | > 10 | > 10 | > 10 |  |  |
| Cc1nnc(C(C)C)n1C1C[C@H]2CC[C@@H](C1)N2CC[C@H](NC(=O)C1CCC(F)(F)CC1)c1ccccc1 (stereo in doubt) [Maraviroc] | > 10 | > 10 | > 10 | > 10 | > 10 | > 10 | > 10 | > 10 |  |  |
| Cn1cc(NC(=O)c2cc(NC(=O)CNC(=N)N)cn2C)cc1C(=O)NCCC(=N)N [Netropsin Dihydrochloride] | > 10 | > 10 | > 10 | > 10 | > 10 | 5.52 | > 10 | > 10 |  |  |
| COCC[n+]1c2c(n(Cc3cnccn3)c1C)C(=O)c1ccccc1C2=O [YM155] | 0.02 | 0.01 | 0.15 | 0.27 | 0.16 | 0.07 | 0.28 | 0.01 |  |  |
| O=C(O)CC[C@H](O)C(=O)O [L-a-Hydroxyglutaric acid] | > 10 | > 10 | > 10 | > 10 | > 10 | > 10 | > 10 | > 10 |  |  |
| CN[C@@H](C)C(=O)N[C@H](C(=O)N1CCC[C@H]1c1nc(C(=O)c2ccc(F)cc2)cs1)C1CCCCC1 [LCL161] | 1.8 | > 10 | > 10 | > 10 | > 10 | > 10 | > 10 | 3.15 |  |  |
| O=c1ncccn1[C@@H]1O[C@H](CO)[C@@H](O)[C@H]1O [Zebularine] | > 10 | > 10 | > 10 | > 10 | > 10 | > 10 | > 10 | > 10 |  |  |
| CCOC(=O)CCNc1cc(N2CCc3ccccc3CC2)nc(-c2ccccn2)n1 [GSK-J4 HCl] | 1.58 | > 10 | > 10 | > 10 | > 10 | > 10 | > 10 | 4.72 |  |  |
| C[C@@H](Oc1cc(-c2cnn(C3CCNCC3)c2)cnc1N)c1c(Cl)ccc(F)c1Cl [Crizotinib] | 4.37 | 0.94 | 5.94 | 1.8 | 4.62 | 1.31 | 0.41 | 0.53 |  |  |
| CC(C)n1nc(-c2ccc3oc(N)nc3c2)c2c(N)ncnc21 [INK 128] | 0.01 | > 10 | 0.26 | 0.06 | 0.1 | 0.14 | 0.02 | 0.03 |  |  |
| COc1ccc(C[C@@H](C)[C@@H](C)Cc2ccc(OC)c(OC)c2)cc1OC [EM1421] | > 10 | > 10 | > 10 | > 10 | > 10 | > 10 | > 10 | > 10 |  |  |
| C=C[C@@]1(C)CC(=O)[C@]2(O)[C@@]3(C)[C@@H](O)CCC(C)(C)[C@@H]3[C@H](O)[C@H](OC(C)=O)[C@@]2(C)O1 [Forskolin] | > 10 | > 10 | > 10 | > 10 | > 10 | > 10 | > 10 | > 10 |  |  |
| C[C@@]1(C(=O)Nc2ccc(F)nc2)CCCN1c1nc(Nc2cc(C3CC3)n[nH]2)c2cccn2n1 |  |  |  |  |  |  |  |  | 2350 | 10 |
| Cn1cc(C2=C(c3cn(C4CCN(Cc5ccccn5)CC4)c4ccccc34)C(=O)NC2=O)c2ccccc21 [enzastaurin] |  |  |  |  |  |  |  |  | > 10000 | > 10000 |
| CCOc1cc2ncc(C#N)c(Nc3ccc(F)c(Cl)c3)c2cc1NC(=O)/C=C/CN(C)C [pelitinib] |  |  |  |  |  |  |  |  | > 10000 | 200 |
| CCCC(=O)[O-].[Na+] [sodium butyrate] |  |  |  |  |  |  |  |  | > 10000 | 1570 |
| CO[C@H]1C[C@@H]2CC[C@@H](C)[C@@](O)(O2)C(=O)C(=O)N2CCCC[C@H]2C(=O)O[C@H]([C@H](C)C[C@@H]2CC[C@@H](OC(=O)C(C)(CO)CO)[C@H](OC)C2)CC(=O)[C@H](C)/C=C(\C)[C@@H](O)[C@@H](OC)C(=O)[C@H](C)C[C@H](C)/C=C/C=C/C=C/1C [temsirolimus] |  |  |  |  |  |  |  |  | > 10000 | > 10000 |
| CC/C(=C(\c1ccccc1)c1ccc(OCCN(C)C)cc1)c1ccccc1 [Tamoxifen] |  |  |  |  |  |  |  |  | > 10000 | > 10000 |
| Nc1ncn([C@H]2C[C@H](O)[C@@H](CO)O2)c(=O)n1 [decitabine] |  |  |  |  |  |  |  |  | > 10000 | 330 |
| CCNC(=O)c1noc(-c2cc(C(C)C)c(O)cc2O)c1-c1ccc(CN2CCOCC2)cc1 [AUY922] |  |  |  |  |  |  |  |  | 400 | 30 |
| Cc1[nH]c2ccccc2c1CCNCc1ccc(/C=C/C(=O)NO)cc1 [panobinostat] |  |  |  |  |  |  |  |  | 1050 | 100 |
| CN(C)CC[C@H](CSc1ccccc1)Nc1ccc(S(=O)(=O)NC(=O)c2ccc(N3CCN(Cc4ccccc4-c4ccc(Cl)cc4)CC3)cc2)cc1[N+](=O)[O-] [ABT 737] |  |  |  |  |  |  |  |  | > 10000 | 1060 |
| C=C1C[C@@H]2CC[C@@]34C[C@H]5O[C@H]6[C@@H](O3)[C@H]3O[C@H](CC[C@@H]3O[C@H]6[C@H]5O4)CC(=O)C[C@@H]3[C@@H](OC)[C@@H](C[C@H](O)CN)O[C@H]3C[C@H]3O[C@@H](CC[C@@H]1O2)C[C@@H](C)C3=C [Eribulin] |  |  |  |  |  |  |  |  | 10 | 1310 |
